According to patent US12312621B2, “Reprogramming urokinase into an antibody-recruiting anticancer agent” (YALE UNIVERSITY, priority 2011, dated 2025):

Experiment: Storage stability of stock solution in water
Format: physicochemical
Protocol: Synthesis of guanidinium 1 Into a flask were added crude peptide 1v (0.120 mmol, 1 equiv), and a mixture of TFA, TiPS, and water (38:1:1, 2 mL, 0.06 M, producing a homogeneous solution). The mixture was stirred in the dark (1.5 h) and diluted with toluene (3 mL). Volatiles were removed under reduced pressure (2×toluene azeotrope). The crude mixture was dissolved in water (2 mL) and washed with EtOAc (2×2 mL). The aqueous phase was purified by semi-preparative RP-HPLC (C18 column, water+0.1% TFA with 15-35% MeCN over 30 min, product isomers elute at 14.5 and 15.4 min) to yield pure guanidinium 1 (58 mg, 0.049 mmol, 41% yield) as a mixture (approximately 1:1) of regioisomers at fluorescein and as a yellow solid. The regioisomeric ratio was measured by ^1H NMR. ^1H NMR signals were assigned by ^1H-^1H COSY.
Synthesis of guanidinium 2 Into a flask were added crude peptide 2g (0.150 mmol, 1 equiv), and a mixture of TFA, TiPS, and water (38:1:1, 2 mL, 0.07 M). The mixture was stirred (1.5 h) and diluted with toluene (3 mL). Volatiles were removed under reduced pressure (2×toluene azeotrope). The crude mixture was dissolved in water (2 mL) and washed with EtOAc (2×2 mL). […]

N=C(N)NCCC[C@H](NC(=O)CNC(=O)[C@@H](N)CCC(=O)NCCCOCCOCCOCCCNc1ccc([N+](=O)[O-])cc1[N+](=O)[O-])C(=O)CCl [compound 2]
stability of stock solution: stable for at least several months
